Source: PMC4649711, “In1-ghrelin splicing variant is overexpressed in pituitary adenomas and increases their aggressive features” (Scientific Reports, 2015)
Values joined by “and” are separate entries in the source; they are usually repeats but may differ in a detail not shown here. Equal values may be shown once.

How the values were obtained:
[1] = tested on: ACTH-omas (tumoral pituitary cells); experiment: free cytosolic calcium kinetics ([Ca^2+]i), ACTH-oma cells; format: cell-based, human
Procedure: (§1) Pituitary adenoma specimens were dispersed into single cells by enzymatic and mechanical disruption and cultured onto tissue culture plates in serum containing medium, as previously described. Briefly, pituitary samples were resected by endoscopic transsphenoidal surgery and transferred to sterile cold (4°C) culture medium (S-MEM, Gibco, Madrid, Spain) supplemented with 0.1% BSA, 0.01% L-glutamine, 1% antibiotic-antimycotic solution, and 2.5% HEPES. Samples were minced under sterile conditions into 1–2 mm^3 pieces. Some pieces were stored at −80°C for posterior RNA isolation and, when possible, the remaining tissue samples were washed and incubated in 30 mL S-MEM medium supplemented 0.3% trypsin (Beckson, Dickinson and Company, Sparks, MD, USA) in a spinner flask (Bellco Glass, Vineland, NJ, USA) for 2 h of gentle shaking at 37°C and then, incubation was continued for another 5 min in presence of 1 mg of DNAse I (Roche, Mannheim, Germany). Dispersed cells were decanted by centrifugation and then, by repeated aspiration into a smoothtipped glass Pasteur pipette. […]
As previously reported, changes in [Ca^2+]i in single cells were measured using fura-2AM (50,000 cells/coverslip; Molecular Probes, Eugene, OR)[23][30]. […] Cells were examined for changes in [Ca^2+]i after the appropriate treatment (native ghrelin, In1-19 or In1-40) using a 40× objective with Immersion Oil Type NF (Nikon, Tokyo, Japan) while exposed to alternating 340–380 nm light beams, and the intensity of light emission at 505 nm was measured every 5 seconds using MetaFluor Software (Imaging Corp., West Chester, PA, USA). […] Changes in [Ca^2+]i in CHO-K1 cell line expressing recombinant GHSR1a or GHSR1b receptor were measured using Calcium 4 Explorer Kit (Molecular Devices, Sunnyvale, CA, USA). […] Fluorescent signals were then monitored using the FLIPR Tetra (Molecular Devices, Sunnyvale, CA, USA) during which cells were stimulated with compounds. Dose-response curves were analyzed using GraphPad Prism v5.04 (La Jolla, CA, USA).

[2] = tested on: p-Akt; experiment: Akt phosphorylation by western blot in GH-omas; format: cell-based, human; details: 100 nM, 8 minutes, p-Akt/total Akt vs vehicle (100%), n = 4
Procedure: as §1, with “pipette. Cells suspensions were washed once in 4.5 g/L glucose containing DMEM medium (Gibco, Madrid, Spain) supplemented with 0.1% BSA, 0.01% L-glutamine, 1% antibiotic-antimycotic solution, and 2.5% HEPES.” for “pipette.”

[3] = tested on: AtT-20 cell line; experiment: cell viability of AtT-20 cell line; format: cell-based, mouse; details: alamar-blue, 3–5 independent experiments, IGF-1 and Paclitaxel as controls
Procedure: The mouse corticotroph pituitary derived cell line AtT-20/D16v-F2 (ATCC® CRL-1795) was cultured and maintained in Dulbecco's Modified Eagle's Medium (DMEM) complemented with 10% FBS, 100 U/ml penicillin/streptomycin, 0.024 M of 2-(4(2-hydroxyethyl)-1-piperazine)-ethane sulfonic acid (HEPES), and maintained at 37°C and 5% CO2, under sterile conditions. CHO-K1 cell line(ATCC® CCL-61) expressing recombinant human GHSR1a (GenBank accession number U60179) or GHSR1b (GenBank accession number U60181) were cultured and maintained in Ham's F12 media (Corning #10-080-CV) supplemented with 10% FBS, 2 mM L-Glutamine and 0.4 mg/mL Geneticin.
As previously reported, cell viability was estimated using alamar-blue reagent (10,000 cells/well-plate; Biosource International, Camarillo, CA, USA)[30][50][52]. Briefly, cells were serum-starved for 12–16 h before the measurements and treated with serum-free medium containing 10% alamar-blue for 3 h. Reduction of alamar-blue reagent was quantified exciting at 560 nm and reading at 590 nm using the FlexStation III system (Molecular Devices, Sunnyvale, CA, USA). Subsequently, media was replaced by serum-containing alamar-blue free medium and incubated for additional 24–72 h, measuring the alamar-blue reduction every 24 h. […]

[4] = tested on: GHSR-lacking cells (e.g. prostate cell lines); details: cited from earlier work
[5] = tested on: rat pituitary somatotrope cell lines; parameters: method as in PMID 15296479; details: cited from earlier work

## CCCCCCCC(=O)OC[C@H](NC(=O)[C@H](CO)NC(=O)CN)C(=O)N[C@@H](Cc1ccccc1)C(=O)N[C@@H](CC(C)C)C(=O)N[C@@H](CO)C(=O)N1CCC[C@H]1C(=O)N[C@@H](CCC(=O)O)C(=O)N[C@@H](Cc1c[nH]cn1)C(=O)N[C@@H](CCC(N)=O)C(=O)N[C@@H](CCCNC(=N)N)C(=O)N[C@H](C(=O)N[C@@H](CCC(N)=O)C(=O)N[C@@H](CCC(N)=O)C(=O)N[C@@H](CCCNC(=N)N)C(=O)N[C@@H](CCCCN)C(=O)N[C@@H](CCC(=O)O)C(=O)N[C@@H](CO)C(=O)N[C@@H](CCCCN)C(=O)N[C@@H](CCCCN)C(=O)N1CCC[C@H]1C(=O)N1CCC[C@H]1C(=O)N[C@@H](C)C(=O)N[C@@H](CCCCN)C(=O)N[C@@H](CC(C)C)C(=O)N[C@@H](CCC(N)=O)C(=O)N1CCC[C@H]1C(=O)N[C@@H](CCCNC(=N)N)C(=O)O)C(C)C [AG]
[1]; fura-2AM
  [Ca^2+]i response (in words): doubling the [Ca^2+]i levels
[1]; proportion of responsive cells, fura-2AM single-cell imaging
  % cell resp.: 74% and 74.1%
[1]; responsive/tested samples, fura-2AM, 742 / 230 / 143 cells analyzed for AG / In1-19 / In1-40, peptides 100 nM (abstract)
  # samples: 9/9
[2]
  p-Akt levels: increased both, p-ERK1/2 as well as p-Akt, levels
[3]
  cell viability: did not alter cell viability
[4]
  responses in GHSR-lacking cells: have been found in GHSR-lacking cells
[5]
  cell proliferation: can stimulate cell proliferation
